#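 96-well plates; 48 h exposure; 5 concentrations. Endpoints by linear interpolation between flanking doses. Not reached: highest tested concentration assigned. GI50 marks 50% less growth. The concentration for full growth arrest is given as TGI.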
# How the values were obtained:
# Assay in all cases: DTP human tumour cell line panel, 48 h
# DU-145 prostate = tested on: DU-145 prostate
# EKVX NSCLC = tested on: EKVX NSCLC
# HCT-15 colon = tested on: HCT-15 colon
# MDA-N = tested on: MDA-N
# NCI-H522 lung = tested on: NCI-H522 lung
# OVCAR-4 ovarian = tested on: OVCAR-4 ovarian
# OVCAR-5 ovarian = tested on: OVCAR-5 ovarian
# SK-MEL-5 melanoma = tested on: SK-MEL-5 melanoma
# SNB-19 CNS = tested on: SNB-19 CNS
# SR leukemia = tested on: SR leukemia
# A549 NSCLC = tested on: A549 NSCLC
SMILES,TGI (DU-145 prostate) [µM],TGI (EKVX NSCLC) [µM],TGI (HCT-15 colon) [µM],TGI (MDA-N) [µM],TGI (NCI-H522 lung) [µM],TGI (OVCAR-4 ovarian) [µM],TGI (OVCAR-5 ovarian) [µM],TGI (SK-MEL-5 melanoma) [µM],TGI (SNB-19 CNS) [µM],TGI (SR leukemia) [µM],TGI (A549 NSCLC) [µM],GI50 (DU-145 prostate) [µM],GI50 (EKVX NSCLC) [µM],GI50 (HCT-15 colon) [µM],GI50 (NCI-H522 lung) [µM],GI50 (OVCAR-4 ovarian) [µM],GI50 (OVCAR-5 ovarian) [µM],GI50 (SK-MEL-5 melanoma) [µM],GI50 (SNB-19 CNS) [µM],GI50 (SR leukemia) [µM]
O=c1[nH]c(NCCCCCO)nc2nc[nH]c12,> 100,> 100,> 100,> 100,> 100,> 100,> 100,> 100,> 100,> 100,–,–,–,–,–,–,–,–,–,–
CC1=NN(C(=O)CC(=O)Nc2cccc(C)c2)C(=O)C1N=Nc1ccc(C(=O)O)cc1 (centres undefined),> 100,> 100,> 100,> 100,> 100,> 100,> 100,> 100,> 100,> 100,> 100,–,–,–,–,–,–,–,–,–
N#Cc1cc2c(n(C3OC(CO)C(O)C(O)C3O)c1=S)CCC2 (centres undefined),> 100,–,> 100,> 100,> 100,> 100,> 100,> 100,> 100,> 100,> 100,–,–,–,–,–,–,–,–,–
C/C(=C\C(=O)O)C(=O)N(C)c1ccccc1I,> 100,> 100,> 100,> 100,–,> 100,> 100,> 100,> 100,> 100,> 100,–,–,–,–,–,–,–,–,–
CN(C)CCCNC(=O)N/N=C/c1ccccn1,> 10,> 10,> 10,> 10,> 10,> 10,> 10,> 10,–,> 10,> 10,–,–,–,–,–,–,–,–,–
Cc1cc(C)n(C(=CC(=O)C(Cl)Cl)n2nc(C)cc2C)n1,23,–,10.7,–,7.76,> 100,14.5,20.3,41.3,5.69,67,–,–,–,–,–,–,–,–,–
FC(F)(Sc1ncccn1)c1nc2ccccc2o1,> 100,–,> 100,> 100,> 100,> 100,> 100,> 100,–,> 100,> 100,–,–,–,–,–,–,–,–,–
CC1(O)CC23CC(O)C4(O)C(CC(O)C4(C)C)C(C)(O)C2CCC1C3O (centres undefined),> 100,> 100,> 100,–,> 100,> 100,> 100,> 100,> 100,> 100,> 100,–,–,–,–,–,–,–,–,–
N#CC(C#N)=C/C=C/c1ccccc1[N+](=O)[O-],> 10,> 10,> 10,6.29,> 10,> 10,–,> 10,> 10,> 10,> 10,–,–,–,–,–,–,–,–,–
Nc1ncnc2c1ncn2C1C(O)C=C(CO)C1O (centres undefined),–,–,> 625,–,–,> 625,–,> 625,> 625,–,> 625,–,–,–,–,–,–,–,–,–
CCCCCCCCCCCCCCCCOC[C@H](COC(c1ccccc1)(c1ccccc1)c1ccccc1)O[P+](=S)OC (some centres undefined),> 100,> 100,> 100,> 100,> 100,–,> 100,> 100,> 100,> 100,> 100,–,–,–,–,–,–,–,–,–
COc1cc(/C=C2\C(=O)N(c3ccc(Cl)cc3)C(c3ccccc3)S2(=O)=O)cc(OC)c1OC (centres undefined),> 100,> 100,> 100,20.1,60.5,> 100,> 100,> 22,> 100,–,> 100,–,–,–,–,–,–,–,–,–
COc1ccc(/C=C2\N=C3N(Cc4ccccc4)C=C(N)N3C2=O)cc1,> 100,> 100,> 100,> 100,> 100,> 100,> 100,> 100,48.2,–,> 100,–,–,–,–,–,–,–,–,–
O=C(c1ccccc1)C1C(c2ccccc2[N+](=O)[O-])N1C1CCCCC1 (centres undefined),22.6,30.8,23,19.7,5.9,22.7,36.9,24.4,32.3,–,44.2,–,–,–,–,–,–,–,–,–
CCOC(=O)/C(=C/c1cn(C(C)=O)c2ccccc12)P(=O)(OC)OC,> 100,–,> 100,–,79.3,> 100,> 100,> 100,–,73.8,> 100,–,–,–,–,–,–,–,–,–
Clc1ccc(C2=CC(c3ccccc3)N3C(=N[C@H]4CCCC[C@@H]43)N2)cc1 (some centres undefined),20.7,17.4,15.5,18.9,–,18.4,23.6,3.35,17.6,5.98,18.4,–,–,–,–,–,–,–,–,–
c1csc(-c2cc(-c3ccsc3)cs2)c1,> 100,> 100,> 100,> 100,–,> 100,> 100,> 100,–,> 100,> 100,–,–,–,–,–,–,–,–,–
COc1ccc(C=C2C(C)=NN(c3cccc(Cl)c3)C23C(Cl)C(=O)N3c2nc3ccccc3s2)cc1 (centres undefined),33,> 100,37.1,44.6,22,93.5,37.6,32.9,–,85.7,–,–,–,–,–,–,–,–,–,–
CC(C)(C)[C@H]1NC(=O)CN1C(=O)OCc1ccccc1,> 100,> 100,> 100,–,> 100,> 100,> 100,> 100,> 100,> 100,> 100,–,–,–,–,–,–,–,–,–
CCn1c(-c2cc3ccccc3cc2OC(C)=O)n[nH]c1=S,81.1,57.9,87.1,–,38.8,> 100,> 100,38.2,–,4.79,–,–,–,–,–,–,–,–,–,–
CCOC(=O)NC(Nc1ccc(C(=O)O)cc1)(C(F)(F)F)C(F)(F)F,> 100,> 100,> 100,> 100,> 100,–,> 100,> 100,> 100,> 100,> 100,–,–,–,–,–,–,–,–,–

SMILES,TGI (DU-145 prostate) [µM],TGI (EKVX NSCLC) [µM],TGI (HCT-15 colon) [µM],TGI (MDA-N) [µM],TGI (NCI-H522 lung) [µM],TGI (OVCAR-4 ovarian) [µM],TGI (OVCAR-5 ovarian) [µM],TGI (SK-MEL-5 melanoma) [µM],TGI (SNB-19 CNS) [µM],TGI (SR leukemia) [µM],TGI (A549 NSCLC) [µM],GI50 (DU-145 prostate) [µM],GI50 (EKVX NSCLC) [µM],GI50 (HCT-15 colon) [µM],GI50 (NCI-H522 lung) [µM],GI50 (OVCAR-4 ovarian) [µM],GI50 (OVCAR-5 ovarian) [µM],GI50 (SK-MEL-5 melanoma) [µM],GI50 (SNB-19 CNS) [µM],GI50 (SR leukemia) [µM]
CCOC(=O)CC1(N)CC2c3ccccc3OC(=O)C2C(=O)N1 (centres undefined),> 100,> 100,> 100,> 100,> 100,> 100,> 100,–,> 100,> 100,> 100,–,–,–,–,–,–,–,–,–
COc1ccc(C2CC(c3cccc(Nc4ccncc4)c3)=NN2c2ccccc2)cc1 (centres undefined),6.51,10.2,3.44,–,3.81,3.62,12.1,3.28,5.79,5.59,–,2.57,2.73,1.74,1.81,1.79,3.29,1.8,2.2,2
CCOC(=O)CCC(NC(=O)c1ccc(NCc2ccc3nc(OC)c(OC)nc3c2)c2ccccc12)C(=O)OCC (centres undefined),> 100,> 100,> 100,> 100,> 100,> 100,> 100,> 100,> 100,–,> 100,–,–,–,–,–,–,–,–,–
CC(CSc1nc2c(c(=N)n1-c1ccccc1)c(=S)n(-c1ccccc1)c(=S)n2-c1ccccc1)CN(C)C (centres undefined),3.03,3.12,3.17,3.76,2.83,3.2,26.8,4.42,17.8,0.938,–,–,–,–,–,–,–,–,–,–
CCOC(=O)CSc1nc(-c2ccc(Cl)cc2)c(C#N)c(=O)[nH]1,> 100,> 100,> 100,–,> 100,> 100,> 100,> 100,> 100,–,> 100,–,–,–,–,–,–,–,–,–
CC(=O)N1CN2C(=O)CCC2c2cc(C)ccc21 (centres undefined),> 100,> 100,> 100,> 100,> 100,> 100,> 100,> 100,> 100,–,> 100,–,–,–,–,–,–,–,–,–
CC1CC(C)(C)CC(OCCN2CCCCC2)(c2ccccc2)C1 (centres undefined),19.8,19.5,27.5,–,21.6,24,18.2,22.9,26.7,20.4,24.6,–,–,–,–,–,–,–,–,–
O=C(O)C1C2OC(C(Br)C2Br)C1C(=O)O (centres undefined),> 100,> 100,> 100,> 100,> 100,> 100,> 100,> 100,> 100,–,> 100,–,–,–,–,–,–,–,–,–
COc1cc2c(cc1OCCN1CCN(CCOc3cc4c(cc3OC)C(=O)N3CCC[C@H]3C=N4)CC1)N=C[C@@H]1CCCN1C2=O,> 100,> 100,> 100,–,> 82.1,> 100,63.7,48.9,> 100,–,> 100,–,–,–,–,–,–,–,–,–
C=C(C)C1CCC2(C)C1CCC1(C)C2CCC2C3(C)C4OC(OC4=O)C(C)(C)C3CCC21C (centres undefined),> 100,> 100,> 100,> 100,53.6,–,> 100,> 100,> 100,> 100,> 100,–,–,–,–,–,–,–,–,–
Fc1nc(Sc2ncnc3nc[nH]c23)nc(-c2c3ccccc3c3sc4ccccc4n23)n1,> 100,> 100,> 100,> 100,> 100,> 100,> 100,> 100,> 100,–,> 100,–,–,–,–,–,–,–,–,–
O=C(CN1CCCC1)Nc1ccc2c(c1)C1Oc3ccccc3CC1CO2 (centres undefined),> 100,> 100,47.2,88.2,96.5,–,93.4,28.2,–,89.6,> 100,–,–,–,–,–,–,–,–,–
Nc1ccc2c3c1cccc3c(=O)n1c3ccc(Cc4ccc5c(c4)nc4c6ccc(N)c7cccc(c(=O)n54)c76)cc3nc21,> 100,> 100,–,> 100,> 100,> 100,> 100,> 100,> 100,> 100,> 100,–,–,–,–,–,–,–,–,–
O=c1[nH]c2ccccc2c(=O)n1/N=C\c1ccccc1O,> 100,> 100,> 100,> 100,–,–,> 100,> 100,> 100,> 100,> 100,–,–,–,–,–,–,–,–,–
O=c1ccc(=O)c2c1c1[nH]c3ccccc3c1c1c(=O)c3ccccc3c(=O)c21,> 10,> 10,> 10,–,> 10,> 10,> 10,> 10,> 10,> 10,> 10,–,–,–,–,–,–,–,–,–
CCOC(=O)CCC(C(=O)OCC)n1nnc2cc(Nc3c(C)[n+]([O-])c4cc(Cl)ccc4[n+]3[O-])ccc21 (centres undefined),> 100,71.9,> 100,> 100,> 100,> 100,> 100,> 100,> 100,–,> 100,–,–,–,–,–,–,–,–,–
CC1OC23CCCCC2C(C#N)(C#N)C1(C#N)C(=N)O3 (centres undefined),66.5,91.1,37.6,35.8,–,–,52.6,32.3,65.2,–,> 100,–,–,–,–,–,–,–,–,–
COC(=O)c1c2c(cc3c1CC1(Cc4cc5c(cc4C1)CCCC5)C3)CCCC2,–,> 100,> 100,> 100,> 100,> 100,> 100,> 100,–,> 100,> 100,–,–,–,–,–,–,–,–,–
CCOC(=O)CC1C(C(=O)OCC)=Cn2c([nH]c3cccc4cccc2c43)=C1C(=O)OCC (centres undefined),> 100,> 100,> 100,> 100,–,> 100,> 100,> 100,> 100,> 100,> 100,–,–,–,–,–,–,–,–,–
C[C@]12CC[C@H]3[C@@H](CCC4=C/C(=N/OCCN5CCCCC5)CC[C@@]43C)[C@@H]1CC[C@@H]2O,63.5,> 100,21.2,34.5,36.1,58.9,40.7,26.4,18.5,–,34.5,–,–,–,–,–,–,–,–,–
CC(C)NC(=O)OCCN=C1c2ccccc2C(Br)C(Br)c2ccccc21 (centres undefined),30,59.2,> 69.8,28.9,3.52,33.6,27.3,21.1,43.3,–,62.4,–,–,–,–,–,–,–,–,–
